In brackets after ≈: the same amount, converted by molar mass. Where a SMILES comes first, the peptide text is derived from it. [ ]: non-standard residue; d: D form.
Columns and labels:
E. coli [1] = test: microbe, parasite or virus in culture; format: cell-based, Escherichia coli; details: 16 h
How it was run: (§1)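 Broth microdilution in MH medium: bacterial strains diluted to 2×10^6 CFU were mixed with equal volumes of peptide serially diluted twofold in MH medium.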

MDREC 1229 [2] = test: microbe, parasite or virus in culture; format: cell-based, Escherichia coli
How it was run: as §1

MDRAB 12036 = format: cell-based, Acinetobacter baumannii
How it was run: as §1

MDRST 8007 = test: Minimal inhibitory concentration (MIC), single agent; format: cell-based, Salmonella typhimurium; details: agent alone
How it was run: as §1

B. subtilis = test: microbe, parasite or virus in culture; format: cell-based, Bacillus subtilis
How it was run: as §1

S. aureus = test: microbe, parasite or virus in culture; format: cell-based, Staphylococcus aureus
How it was run: as §1

E. coli [3] = test: MIC of antibiotic during combined treatment with antimicrobial peptide; format: cell-based, Escherichia coli; details: for Antibiotic MIC, Erythromycin / Antibiotic MIC, Linezolid / Antibiotic MIC, Vancomycin: E. coli
How it was run: (§2)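 Antibiotic diluted in MH medium, dispensed per well with peptide; setup repeated with roles reversed; MIC read per combination.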

MDREC 1229 [4] = test: as above; format: cell-based, Escherichia coli
How it was run: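 Antibiotic MIC came from antibiotic dilutions added to bacteria (2×10^6 CFU/ml, MH medium) already combined with peptide serially diluted 2:1 from its own MIC. Swapping the roles of the two agents gave the peptide MIC.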

A. baumannii = test: as above; format: cell-based, Acinetobacter baumannii
How it was run: as §2

[5] = peptide treatment concentration 1 μg/ml
[6] = peptide treatment concentration 2 μg/ml
[7] = peptide treatment concentration 4 μg/ml
[8] = peptide treatment concentration 6 μg/ml
[9] = peptide treatment concentration 8 μg/ml
[10] = peptide treatment concentration 16 μg/ml
[11] = peptide treatment concentration 32 μg/ml
[12] = peptide treatment concentration 64 μg/ml
[13] = A. baumannii, combined with peptide at 1 μg/ml

## CC[C@H](C)[C@H](NC(=O)[C@H](CCCCN)NC(=O)[C@H](Cc1c[nH]c2ccccc12)NC(=O)[C@@H](N)CCCNC(=N)N)C(=O)N[C@@H](Cc1ccccc1)C(=O)N[C@@H](CCCCN)C(=O)N[C@@H](CCCCN)C(=O)N[C@H](C(=O)N[C@H](CCCCN)C(=O)N[C@@H](CCCCN)C(=O)N[C@@H](CC(C)C)C(=O)N[C@@H](CC(C)C)C(=O)N[C@@H](Cc1c[nH]cn1)C(=O)N[C@@H](CCCCN)C(=O)N[C@@H](Cc1ccccc1)C(=O)N[C@@H](CCCCN)C(=O)N[C@@H](CCCCN)C(=O)N[C@@H](Cc1ccccc1)C(N)=O)[C@@H](C)CC [PapMA-17, RWK IFK KIk KLL HKF KKF-NH2] (H-RWKIFKKI[dK]KLLHKFKKF-NH2; N-terminus assumed)
E. coli [1]
  Minimal inhibitory concentration MIC: 16 µg/mL (≈ 6.62 µM)
MDREC 1229 [2]
  Minimal inhibitory concentration MIC: 16 µg/mL (≈ 6.62 µM)
  Peptide MIC, peptide alone: 16 µg/mL
MDRAB 12036
  Minimal inhibitory concentration MIC: 32 µg/mL (≈ 13.2 µM)
MDRST 8007
  Minimal inhibitory concentration MIC: 64 µg/mL (≈ 26.5 µM)
B. subtilis
  Minimal inhibitory concentration MIC: >128 µg/mL
S. aureus
  Minimal inhibitory concentration MIC: >128 µg/mL
E. coli [3]; E. coli and MDREC1229
  Synergistic effect of antibacterial activity with existing antibiotics compared with PapMA-1: higher level than the PapMA-1 peptide
E. coli [3]; erythromycin combined with peptide at 1 μg/ml
  Antibiotic MIC, Erythromycin: 128 µg/mL
E. coli [3]; erythromycin combined with peptide at 2 μg/ml
  Antibiotic MIC, Erythromycin: 16 µg/mL
E. coli [3]; erythromycin combined with peptide at 4 μg/ml
  Antibiotic MIC, Erythromycin: 8 µg/mL
E. coli [3]; erythromycin combined with peptide at 6 μg/ml
  Antibiotic MIC, Erythromycin: 2 µg/mL
E. coli [3]; erythromycin combined with peptide at 8 μg/ml
  Antibiotic MIC, Erythromycin: 1 µg/mL
E. coli [3]; erythromycin combined with peptide at 16 μg/ml
  Antibiotic MIC, Erythromycin: 0 µg/mL
E. coli [3]; erythromycin combined with peptide at 32 μg/ml
  Antibiotic MIC, Erythromycin: 0 µg/mL
E. coli [3]; erythromycin combined with peptide at 64 μg/ml
  Antibiotic MIC, Erythromycin: 0 µg/mL
E. coli [3]; linezolid combined with peptide at 1 μg/ml
  Antibiotic MIC, Linezolid: >128 µg/mL
E. coli [3]; linezolid combined with peptide at 2 μg/ml
  Antibiotic MIC, Linezolid: >128 µg/mL
E. coli [3]; linezolid combined with peptide at 4 μg/ml
  Antibiotic MIC, Linezolid: 32 µg/mL
E. coli [3]; linezolid combined with peptide at 6 μg/ml
  Antibiotic MIC, Linezolid: 16 µg/mL
E. coli [3]; linezolid combined with peptide at 8 μg/ml
  Antibiotic MIC, Linezolid: 8 µg/mL
E. coli [3]; linezolid combined with peptide at 16 μg/ml
  Antibiotic MIC, Linezolid: 0 µg/mL
E. coli [3]; linezolid combined with peptide at 32 μg/ml
  Antibiotic MIC, Linezolid: 0 µg/mL
E. coli [3]; linezolid combined with peptide at 64 μg/ml
  Antibiotic MIC, Linezolid: 0 µg/mL
E. coli [3]; vancomycin combined with peptide at 1 μg/ml
  Antibiotic MIC, Vancomycin: >128 µg/mL
E. coli [3]; vancomycin combined with peptide at 2 μg/ml
  Antibiotic MIC, Vancomycin: >128 µg/mL
E. coli [3]; vancomycin combined with peptide at 4 μg/ml
  Antibiotic MIC, Vancomycin: 128 µg/mL
E. coli [3]; vancomycin combined with peptide at 6 μg/ml
  Antibiotic MIC, Vancomycin: 32 µg/mL
E. coli [3]; vancomycin combined with peptide at 8 μg/ml
  Antibiotic MIC, Vancomycin: 16 µg/mL
E. coli [3]; vancomycin combined with peptide at 16 μg/ml
  Antibiotic MIC, Vancomycin: 0 µg/mL
E. coli [3]; vancomycin combined with peptide at 32 μg/ml
  Antibiotic MIC, Vancomycin: 0 µg/mL
E. coli [3]; vancomycin combined with peptide at 64 μg/ml
  Antibiotic MIC, Vancomycin: 0 µg/mL
MDREC 1229 [4]; [5]
  Antibiotic MIC, Erythromycin: >128 µg/mL
  Antibiotic MIC, Linezolid: >128 µg/mL
  Antibiotic MIC, Vancomycin: >128 µg/mL
MDREC 1229 [4]; [6]
  Antibiotic MIC, Erythromycin: 32 µg/mL
  Antibiotic MIC, Linezolid: >128 µg/mL
  Antibiotic MIC, Vancomycin: >128 µg/mL
MDREC 1229 [4]; [7]
  Antibiotic MIC, Erythromycin: 16 µg/mL
  Antibiotic MIC, Linezolid: 64 µg/mL
  Antibiotic MIC, Vancomycin: 64 µg/mL
MDREC 1229 [4]; [8]
  Antibiotic MIC, Erythromycin: 8 µg/mL
  Antibiotic MIC, Linezolid: 16 µg/mL
  Antibiotic MIC, Vancomycin: 32 µg/mL
MDREC 1229 [4]; [9]
  Antibiotic MIC, Erythromycin: 4 µg/mL
  Antibiotic MIC, Linezolid: 16 µg/mL
  Antibiotic MIC, Vancomycin: 16 µg/mL
MDREC 1229 [4]; [10]
  Antibiotic MIC, Erythromycin: 0 µg/mL
  Antibiotic MIC, Linezolid: 0 µg/mL
  Antibiotic MIC, Vancomycin: 0 µg/mL
MDREC 1229 [4]; [11]
  Antibiotic MIC, Erythromycin: 0 µg/mL
  Antibiotic MIC, Linezolid: 0 µg/mL
  Antibiotic MIC, Vancomycin: 0 µg/mL
MDREC 1229 [4]; [12]
  Antibiotic MIC, Erythromycin: 0 µg/mL
  Antibiotic MIC, Linezolid: 0 µg/mL
  Antibiotic MIC, Vancomycin: 0 µg/mL
A. baumannii; A. baumannii and MDRAB 12035
  Synergistic effect of antibacterial activity with existing antibiotics compared with PapMA-1: level similar to that of PapMA-1 peptide
A. baumannii; [13]
  Antibiotic MIC, Erythromycin: 32 µg/mL
  Antibiotic MIC, Linezolid: >128 µg/mL
  Antibiotic MIC, Vancomycin: >128 µg/mL
